System: NHBE cells
Assay: Biolog metabolic array: substrate use by NHBE cells with or without CA09 infection
Type: cell-based, human
Conditions: for Substrate use, 590 nm absorbance normalized to zero hour, 1 hr: Biolog PMM2, 1 hr; for Substrate use, 590 nm absorbance normalized to zero hour, 5 hr: Biolog PMM2, 5 hr; for Substrate use, 590 nm absorbance normalized to zero hour, 7 hr: Biolog PMM2, 7 hr
[1] = Control (uninfected) NHBE cells
[2] = Virus (CA09-infected, MOI 1) NHBE cells
[3] = Virus: CA09-infected NHBE cells, MOI 1, Biolog PMM2
[4] = Virus (CA09-infected NHBE cells, MOI 1)

SMILES	590 nm absorbance normalized to zero hour (substrate use), 1 hr [1]	590 nm absorbance normalized to zero hour (substrate use), 2 hr [1]	590 nm absorbance normalized to zero hour (substrate use), 3 hr [1]	590 nm absorbance normalized to zero hour (substrate use), 4 hr [1]	590 nm absorbance normalized to zero hour (substrate use), 6 hr [1]	590 nm absorbance normalized to zero hour (substrate use), 8 hr [1]	590 nm absorbance normalized to zero hour (substrate use), 9 hr [1]	590 nm absorbance normalized to zero hour (substrate use), 10 hr [1]	590 nm absorbance normalized to zero hour (substrate use), 11 hr [1]	Substrate use, 590 nm absorbance normalized to zero hour, 1 hr [1]	Substrate use, 590 nm absorbance normalized to zero hour, 5 hr [1]	Substrate use, 590 nm absorbance normalized to zero hour, 7 hr [1]	590 nm absorbance normalized to zero hour (substrate use), 11 hr [2]	590 nm absorbance normalized to zero hour (substrate use), 1 hr [3]	590 nm absorbance normalized to zero hour (substrate use), 2 hr [3]	590 nm absorbance normalized to zero hour (substrate use), 3 hr [3]	590 nm absorbance normalized to zero hour (substrate use), 4 hr [3]	590 nm absorbance normalized to zero hour (substrate use), 5 hr [3]	590 nm absorbance normalized to zero hour (substrate use), 6 hr [3]	590 nm absorbance normalized to zero hour (substrate use), 7 hr [3]	further results
O=C(O)CCC(=O)O [Succinic Acid]	1.02	1.06	1.08	1.06	0.39	0.96	0.94	0.87	0.81	1.02	1.04	1.00	3.12	1.69	2.01	2.37	2.37	2.54	2.73	2.78	590 nm absorbance normalized to zero hour (substrate use), 1 hr [2]: 1.69; 590 nm absorbance normalized to zero hour (substrate use), 2 hr [2]: 2.01; 590 nm absorbance normalized to zero hour (substrate use), 3 hr [2]: 2.37; 590 nm absorbance normalized to zero hour (substrate use), 4 hr [2]: 2.37; 590 nm absorbance normalized to zero hour (substrate use), 5 hr [2]: 2.54; 590 nm absorbance normalized to zero hour (substrate use), 6 hr [2]: 2.73; 590 nm absorbance normalized to zero hour (substrate use), 7 hr [2]: 2.78; 590 nm absorbance normalized to zero hour (substrate use), 8 hr [2]: 2.85; 590 nm absorbance normalized to zero hour (substrate use), 9 hr [2]: 3.06; 590 nm absorbance normalized to zero hour (substrate use), 10 hr [2]: 2.98; 590 nm absorbance normalized to zero hour (substrate use), 8 hr [3]: 2.85; 590 nm absorbance normalized to zero hour (substrate use), 9 hr [3]: 3.06; 590 nm absorbance normalized to zero hour (substrate use), 10 hr [3]: 2.98; 590 nm absorbance normalized to zero hour (substrate use), 11 hr [3]: 3.12
O=C(CO)[C@@H](O)[C@@H](O)[C@H](O)CO [Tagatose]													0.48								
Cc1cn([C@H]2C[C@H](O)[C@@H](CO)O2)c(=O)[nH]c1=O [Thymidine]	1.65	1.61	1.67	1.64	0.92	0.62	1.52	1.43	0.81	1.65	1.75	0.61	2.21	1.52	2.29	2.27	2.32	2.34	2.33	2.34	590 nm absorbance normalized to zero hour (substrate use), 1 hr [2]: 1.52; 590 nm absorbance normalized to zero hour (substrate use), 2 hr [2]: 2.29; 590 nm absorbance normalized to zero hour (substrate use), 3 hr [2]: 2.27; 590 nm absorbance normalized to zero hour (substrate use), 4 hr [2]: 2.32; 590 nm absorbance normalized to zero hour (substrate use), 5 hr [2]: 2.34; 590 nm absorbance normalized to zero hour (substrate use), 6 hr [2]: 2.33; 590 nm absorbance normalized to zero hour (substrate use), 7 hr [2]: 2.34; 590 nm absorbance normalized to zero hour (substrate use), 8 hr [2]: 2.26; 590 nm absorbance normalized to zero hour (substrate use), 9 hr [2]: 2.28; 590 nm absorbance normalized to zero hour (substrate use), 10 hr [2]: 0.94; 590 nm absorbance normalized to zero hour (substrate use), 8 hr [3]: 2.26; 590 nm absorbance normalized to zero hour (substrate use), 9 hr [3]: 2.28; 590 nm absorbance normalized to zero hour (substrate use), 10 hr [3]: 0.94; 590 nm absorbance normalized to zero hour (substrate use), 11 hr [3]: 2.21
O=C(O)CC(CC(=O)O)C(=O)O [Tricarballylic Acid]	1.07	1.03	0.79	1.20	0.35	0.54	0.83	0.74	0.59	1.07	0.72	0.89		0.20	0.25	0.29	0.29	0.32	0.34	0.36	590 nm absorbance normalized to zero hour (substrate use), 1 hr [4]: 0.20; 590 nm absorbance normalized to zero hour (substrate use), 2 hr [4]: 0.25; 590 nm absorbance normalized to zero hour (substrate use), 3 hr [4]: 0.29; 590 nm absorbance normalized to zero hour (substrate use), 4 hr [4]: 0.29; 590 nm absorbance normalized to zero hour (substrate use), 5 hr [4]: 0.32; 590 nm absorbance normalized to zero hour (substrate use), 6 hr [4]: 0.34; 590 nm absorbance normalized to zero hour (substrate use), 7 hr [4]: 0.36; 590 nm absorbance normalized to zero hour (substrate use), 8 hr [4]: 0.36; 590 nm absorbance normalized to zero hour (substrate use), 9 hr [4]: 0.39; 590 nm absorbance normalized to zero hour (substrate use), 10 hr [4]: 0.40; 590 nm absorbance normalized to zero hour (substrate use), 11 hr [4]: 0.38; 590 nm absorbance normalized to zero hour (substrate use), 8 hr [3]: 0.36; 590 nm absorbance normalized to zero hour (substrate use), 9 hr [3]: 0.39; 590 nm absorbance normalized to zero hour (substrate use), 10 hr [3]: 0.40; 590 nm absorbance normalized to zero hour (substrate use), 11 hr [3]: 0.38
O=C(CO)[C@@H](O[C@H]1O[C@H](CO)[C@@H](O)[C@H](O)[C@H]1O)[C@H](O)[C@H](O)CO [Turanose]	0.23	0.31	0.36	0.40	0.49	0.51	0.57	0.57	0.60	0.23	0.55	0.44	0.55	0.20	0.28	0.34	0.36	0.44	0.48	0.51	590 nm absorbance normalized to zero hour (substrate use), 0 hr [1]: 1.00; Substrate use, 590 nm absorbance normalized to zero hour, 0 hr (Control (uninfected) NHBE cells, Biolog PMM2, 0 hr): 1.00; 590 nm absorbance normalized to zero hour (substrate use), 0 hr [2]: 1.00; 590 nm absorbance normalized to zero hour (substrate use), 1 hr [2]: 0.20; 590 nm absorbance normalized to zero hour (substrate use), 2 hr [2]: 0.28; 590 nm absorbance normalized to zero hour (substrate use), 3 hr [2]: 0.34; 590 nm absorbance normalized to zero hour (substrate use), 4 hr [2]: 0.36; 590 nm absorbance normalized to zero hour (substrate use), 5 hr [2]: 0.44; 590 nm absorbance normalized to zero hour (substrate use), 6 hr [2]: 0.48; 590 nm absorbance normalized to zero hour (substrate use), 7 hr [2]: 0.51; 590 nm absorbance normalized to zero hour (substrate use), 8 hr [2]: 0.56; 590 nm absorbance normalized to zero hour (substrate use), 9 hr [2]: 0.61; 590 nm absorbance normalized to zero hour (substrate use), 10 hr [2]: 0.60; 590 nm absorbance normalized to zero hour (substrate use), 0 hr [3]: 1.00; 590 nm absorbance normalized to zero hour (substrate use), 8 hr [3]: 0.56; 590 nm absorbance normalized to zero hour (substrate use), 9 hr [3]: 0.61; 590 nm absorbance normalized to zero hour (substrate use), 10 hr [3]: 0.60; 590 nm absorbance normalized to zero hour (substrate use), 11 hr [3]: 0.55

Reference: patent publication US11083725B2 (priority 2014, dated 2021)
